According to patent publication US20230066946A1, “1,5-DIPHENYLPYRAZOLYL-3-OXYALKYL ACIDS AND 1-PHENYL-5-THIENYLPYRAZOLYL-3-OXYALKYL ACIDS AND THE USE THEREOF FOR CONTROL OF UNWANTED PLANT GROWTH” (Bayer Aktiengesellschaft, priority 2019, published 2023):

Columns and labels:
PHBPU = experiment: Post-emergence herbicidal action against PHBPU; format: in vivo, Pharbitis purpurea; conditions: 320 g/ha, visual rating about 3 weeks after treatment
Method: (§1) [table] Seeds of mono- and dicotyledonous weed plants are placed in plastic pots in sandy loam soil (twin sowing with one species each of mono- or dicotyledonous weed plants per pot), covered with soil and cultivated in a greenhouse under controlled growth conditions. 2 to 3 weeks after sowing, the test plants are treated at the one-leaf stage. The compounds of the invention, formulated in the form of wettable powders (WP) or as emulsion concentrates (EC), are applied to the green parts of the plants as aqueous suspension or emulsion with addition of 0.5% additive at a water application rate equivalent to 600 litres per hectare. After the test plants have been kept in the greenhouse under optimum growth conditions for about 3 weeks, the activity of the preparations is rated visually in comparison to untreated controls. For example, 100% activity=the plants have died, 0% activity=like control plants. Tables 5.1-5.16 below show the effects of selected compounds of the general formula (I) according to Tables 1 to 3 on various harmful plants at an application rate corresponding to 1280 or 320 g/ha, which have been obtained by the aforementioned experimental method.

MATIN [1] = experiment: Pre-emergence herbicidal action against MATIN; format: in vivo, Matricaria inodora; conditions: 1280 g/ha, scored visually after about 3 weeks vs untreated controls
Excerpt: (§2) Seeds of mono- and dicotyledonous weed plants are placed in plastic pots in sandy loam soil (doubly sown with one species each of mono- or dicotyledonous weed plants per pot) and covered with soil. The compounds of the invention, formulated in the form of wettable powders (WP) or as emulsion concentrates (EC), are then applied onto the surface of the covering soil as aqueous suspension or emulsion with addition of 0.5% additive at a water application rate equivalent to 600 litres per hectare. After the treatment, the pots are placed in a greenhouse and kept under good growth conditions for the trial plants. After about 3 weeks, the effect of the preparations is scored visually in comparison with untreated controls as percentages. For example, 100% activity=the plants have died, 0% activity=like control plants. [table] Tables 4.1-4.15 below show the effects of selected compounds of the general formula (I) according to Tables 1 to 3 on various harmful plants at an application rate corresponding to 1280 or 320 g/ha, which have been obtained by the aforementioned experimental method.

AMARE [2] = experiment: Pre-emergence herbicidal action against AMARE; format: in vivo, Amaranthus retroflexus; conditions: scored visually after about 3 weeks vs untreated controls; for Pre-emergence action against AMARE in %: 1280 g/ha; for Pre-emergence action at 320 g/ha against AMARE in %: 100% = plants have died, 0% = like control plants
How it was run: (§3)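 Visual percent activity (100% = plants dead, 0% = like control) scored about 3 weeks after pre-emergence treatment in greenhouse. Compounds as WP or EC, applied to covering soil surface with 0.5% additive, 600 L/ha water, at 1280 or 320 g/ha.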

STEME [3] = experiment: Pre-emergence herbicidal action against STEME; format: in vivo, Stellaria media; conditions: scored visually after about 3 weeks vs untreated controls
How it was run: as §3

SETVI [4] = experiment: Post-emergence herbicidal action against SETVI; format: in vivo, Setaria viridis; conditions: 1280 g/ha, post-emergence at one-leaf stage, rated visually after about 3 weeks vs untreated controls
How it was run: (§4)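 Herbicidal effect, rated visually about 3 weeks after treatment as percent versus untreated controls. Test plants in sandy loam had received a foliar application at the one-leaf stage of 1280 or 320 g/ha, formulated as WP or EC with 0.5% additive in 600 litres per hectare water.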

ECHCG [5] = experiment: Post-emergence herbicidal action against ECHCG; format: in vivo, Echinochloa crus-galli; conditions: 1280 g/ha, post-emergence at one-leaf stage, rated visually after about 3 weeks vs untreated controls
Method: as §1

AMARE [6] = experiment: Post-emergence herbicidal action against AMARE; format: in vivo, Amaranthus retroflexus; conditions: visual rating about 3 weeks after treatment
How it was run: as §4

STEME [7] = experiment: Post-emergence herbicidal action against STEME; format: in vivo, Stellaria media; conditions: visual rating about 3 weeks after treatment
How it was run: as §4

VIOTR [8] = experiment: Post-emergence herbicidal action against VIOTR; format: in vivo, Viola tricolor; conditions: 320 g/ha, visual rating about 3 weeks after treatment
Method: as §1

VERPE [9] = experiment: Pre-emergence herbicidal action against VERPE; format: in vivo, Veronica persica; conditions: 320 g/ha, scored visually after about 3 weeks vs untreated controls
Excerpt: as §2

MATIN [10] = experiment: Post-emergence herbicidal action against MATIN; format: in vivo, Matricaria inodora; conditions: visual rating about 3 weeks after treatment
How it was run: as §4

VERPE [11] = experiment: Post-emergence herbicidal action against VERPE; format: in vivo, Veronica persica; conditions: 320 g/ha, visual rating about 3 weeks after treatment
Method: as §1

SETVI [12] = experiment: Pre-emergence herbicidal action against SETVI; format: in vivo, Setaria viridis; conditions: 1280 g/ha, scored visually after about 3 weeks vs untreated controls
How it was run: as §3

VIOTR [13] = experiment: Pre-emergence herbicidal action against VIOTR; format: in vivo, Viola tricolor; conditions: 1280 g/ha, scored visually after about 3 weeks vs untreated controls
Excerpt: as §2

harmful plants = experiment: Pre-emergence herbicidal action, summary of Tables 4.1-4.15; format: in vivo; conditions: result in words
Excerpt: as §2, with “plants.” for “plants. [table] Tables 4.1-4.15 below show the effects of selected compounds of the general formula (I) according to Tables 1 to 3 on various harmful plants at an application rate corresponding to 1280 or 320 g/ha, which have been obtained by the aforementioned experimental method.”
Tables 4.1-4.15 below show the effects of selected compounds of the general formula (I) according to Tables 1 to 3 on various harmful plants at an application rate corresponding to 1280 or 320 g/ha, which have been obtained by the aforementioned experimental method.
For example, compounds no. I-008, I-056, I-057, I-061, I-067, I-070 and I-072 applied by the pre-emergence method have very good action (80% to 100% herbicidal action) against harmful plants such as Alopecurus myosuroides, Amaranthus retroflexus, Matricaria inodora, Polygonum convolvulus, Setaria viridis and Stellaria media at an application rate of 1.28 kg of active substance or less per hectare.

ECHCG [14] = experiment: Pre-emergence herbicidal action against ECHCG; format: in vivo, Echinochloa crus-galli; conditions: scored visually after about 3 weeks vs untreated controls, 100% = plants have died, 0% = like control plants
How it was run: as §3

POLCO = experiment: Pre-emergence herbicidal action against POLCO; format: in vivo, Polygonum convolvulus; conditions: 320 g/ha, scored visually after about 3 weeks vs untreated controls
Excerpt: as §2

Compound | Post-emergence action against PHBPU in % (PHBPU) [%] | Pre-emergence action against MATIN in % (MATIN [1]) [%] | Pre-emergence action against AMARE in % (AMARE [2]) [%] | Pre-emergence action against STEME in % (STEME [3]; 1280 g/ha) [%] | Post-emergence action against SETVI in % (SETVI [4]) [%] | Post-emergence action against ECHCG in % (ECHCG [5]) [%] | Post-emergence action against AMARE in % (AMARE [6]; 1280 g/ha) [%] | Post-emergence action against STEME in % (STEME [7]; 1280 g/ha) [%] | Post-emergence action against VIOTR in % (VIOTR [8]) [%] | Post-emergence action against MATIN in % (MATIN [10]; 1280 g/ha) [%] | Pre-emergence action against SETVI in % (SETVI [12]) [%] | herbicidal efficacy against harmful plants in the case of pre-emergence treatment (harmful plants) | Pre-emergence action at 1280 g/ha against ECHCG in % (ECHCG [14]) [%] | also measured
COC(=O)COc1nn(-c2cccc(F)c2)c(-c2ccccc2)c1Cl [I-016] | 80 | 90 | 100 | 80 | 80 | 80 | 80 | 80 | – | – | – | – | – | –
COC(=O)COc1nn(-c2cccc(F)c2)c(-c2ccccc2)c1C#N [I-023] | 80 | 100 | 90 | – | – | – | 80 | 80 | 80 | 80 | – | – | – | Pre-emergence action at 320 g/ha against AMARE in % (AMARE [2]): 90%; Pre-emergence action against VERPE in % (VERPE [9]): 90%; Post-emergence action against STEME in % (STEME [7]; 320 g/ha): 80%
COC(=O)COc1nn(-c2cccc(Cl)c2)c(-c2ccc(F)c(F)c2)c1Cl [I-026] | 90 | 90 | 80 | – | – | – | 80 | – | 80 | – | – | – | – | –
COC(=O)COc1nn(-c2ccc(Cl)cc2)c(-c2cccc(F)c2)c1C#N [I-048] | – | 80 | – | – | – | – | – | – | – | – | – | – | – | Post-emergence action against VERPE in % (VERPE [11]): 80%
C#Cc1c(OCC(=O)OC)nn(-c2ccccc2F)c1-c1ccccc1 [I-063] | – | – | 80 | 80 | 80 | – | – | – | 90 | 80 | 100 | – | – | Pre-emergence action against VIOTR in % (VIOTR [13]): 100%
C#Cc1c(OCC(=O)OC)nn(-c2ccccc2)c1-c1ccc(F)cc1 [I-066] | 90 | – | 100 | – | – | – | – | – | 80 | 80 | – | – | – | Post-emergence action against MATIN in % (MATIN [10]; 320 g/ha): 80%; Pre-emergence action against VIOTR in % (VIOTR [13]): 90%
O=C(O)COc1nn(-c2ccc(F)cc2)c(-c2cccc(F)c2)c1[N+](=O)[O-] [I-121] | – | – | 90 | 100 | – | – | – | 100 | – | 90 | 100 | good herbicidal efficacy | 100 | –
CC(Oc1nn(-c2ccccc2)c(-c2ccc(F)cc2)c1Br)C(=O)O (centres unmarked) [I-138, 2-{[4-Bromo-5-(4-fluorophenyl)-1-phenyl-1H-pyrazol-3-yl]oxy}propanoic acid] | – | – | 100 | 100 | – | – | – | 100 | – | – | 100 | good herbicidal efficacy | 100 | –
NCc1ccccc1.O=C(O)COc1nn(-c2cccc(F)c2)c(-c2ccccc2)c1I [II-13] | – | – | 100 | 90 | – | – | – | – | – | 100 | – | good herbicidal efficacy | – | –
C=CCNC(=O)COc1nn(-c2ccccc2F)c(-c2ccccc2)c1Br [III-003] | 80 | – | 100 | 100 | 100 | 100 | 100 | – | – | – | 100 | good herbicidal efficacy | 100 | Pre-emergence action at 320 g/ha against AMARE in % (AMARE [2]): 100%; Pre-emergence action against STEME in % (STEME [3]; 320 g/ha): 100%; Pre-emergence action against POLCO in % (POLCO): 100%; Post-emergence action against VERPE in % (VERPE [11]): 80%; Post-emergence action against AMARE in % (AMARE [6]; 320 g/ha): 80%; Pre-emergence action against VERPE in % (VERPE [9]): 100%
C=CCNC(=O)COc1nn(-c2ccc(F)cc2)c(-c2cccc(F)c2)c1Cl [III-022] | – | – | 90 | 100 | 100 | 90 | 90 | 100 | – | – | 100 | good herbicidal efficacy | 100 | –
COC(=O)CNC(=O)COc1nn(-c2ccc(F)cc2)c(-c2cccc(F)c2)c1Cl [III-027] | – | – | 100 | 100 | 100 | 90 | 90 | 90 | – | 100 | 90 | good herbicidal efficacy | 100 | –
C=CCNC(=O)COc1nn(-c2ccccc2F)c(-c2ccc(F)c(F)c2)c1Br [III-053] | – | – | 90 | 100 | 100 | 100 | – | 100 | – | 90 | 100 | good herbicidal efficacy | 100 | –
